The target in data set [1] is T1, full-length recombinant rat vitamin D receptor (Rattus norvegicus, UniProt P13053).
T1 construct: Full-length recombinant rat receptor was expressed in E. coli; histidine tag (C); made in house; host or cells: E. coli BL21 (DE3) Codon Plus RIL
T1 sequence (P13053 1-423): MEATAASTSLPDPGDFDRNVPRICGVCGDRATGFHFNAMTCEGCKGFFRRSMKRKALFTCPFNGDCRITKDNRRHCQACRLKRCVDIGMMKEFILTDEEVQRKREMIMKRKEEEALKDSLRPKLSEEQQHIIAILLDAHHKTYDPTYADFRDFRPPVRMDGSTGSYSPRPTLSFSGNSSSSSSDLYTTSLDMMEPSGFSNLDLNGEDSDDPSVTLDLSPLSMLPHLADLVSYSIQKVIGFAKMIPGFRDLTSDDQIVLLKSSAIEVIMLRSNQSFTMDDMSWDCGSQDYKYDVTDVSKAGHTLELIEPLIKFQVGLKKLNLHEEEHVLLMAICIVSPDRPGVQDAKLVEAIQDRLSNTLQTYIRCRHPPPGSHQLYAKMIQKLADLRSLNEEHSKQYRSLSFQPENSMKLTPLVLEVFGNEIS
The data set can be described thus: Vitamin D receptor competitive binding with [3H]-1,25(OH)2D3. The settings on record: compared to 1α,25-dihydroxyvitamin D3; FIG. 1. The protocol: Full-length recombinant rat receptor was expressed in E. coli BL21 (DE3) Codon Plus RIL cells and purified to homogeneity using two different column chromatography systems. The first system was a nickel affinity resin that utilizes the C-terminal histidine tag on this protein. […] Aliquots of the purified protein were quick frozen in liquid nitrogen and stored at −80° C. until use. For use in binding assays, the protein was diluted in TEDK50 (50 mM Tris, 1.5 mM EDTA, pH7.4, 5 mM DTT, 150 mM KCl) with 0.1% Chaps detergent. The receptor protein and ligand concentration was optimized such that no more than 20% of the added radiolabeled ligand was bound to the receptor.
Radiolabeled and unlabeled ligands were added to 100 mcl of the diluted protein at a final ethanol concentration of ≦10%, mixed and incubated overnight on ice to reach binding equilibrium. The following day, 100 mcl of hydroxylapatite slurry (50%) was added to each tube and mixed at 10-minute intervals for 30 minutes. The hydroxylapaptite was collected by centrifugation and then washed three times with Tris-EDTA buffer (50 mM Tris, 1.5 mM EDTA, pH 7.4) containing 0.5% Titron X-100. […] Total binding was determined from the tubes containing only radiolabeled ligand.

In another data set the test system is HL-60 cells. Description: HL-60 differentiation (nitro blue tetrazolium reduction). The format is cell-based, human. The conditions noted are these: FIG. 2. The method, then:
The study drugs were dissolved in ethanol and the concentrations determined using UV spectrophotometry. Serial dilutions were prepared so that a range of drug concentrations could be tested without changing the final concentration of ethanol (≦0.2%) present in the cell cultures.
Human promyelocytic leukemia (HL60) cells were grown in RPMI-1640 medium containing 10% fetal bovine serum. The cells were incubated at 37° C. in the presence of 5% CO2.
HL60 cells were plated at 1.2×10^5 cells/ml. Eighteen hours after plating, cells in duplicate were treated with drug. Four days later, the cells were harvested and a nitro blue tetrazolium reduction assay was performed (Collins et al., 1979; J. Exp. Med. 149:969-974). The percentage of differentiated cells was determined by counting a total of 200 cells and recording the number that contained intracellular black-blue formazan deposits. Verification of differentiation to monocytic cells was determined by measuring phagocytic activity (data not shown).

The test system of data set [2] is 24-hydroxylase (24Ohase) gene promoter. Description: In vitro transcription assay (24-hydroxylase promoter luciferase reporter in ROS 17/2.8 bone cells). The conditions noted are these: FIG. 3. The format is cell-based. The protocol:
Cells were given a range of doses. Sixteen hours alter dosing the cells were harvested and luciferase activities were measured using a luminometer. RLU=relative luciferase units.
For orientation: In a reporter assay the amount or activity of a reporter protein is the signal.

The subject of data set [3] is vitamin D-deficient rats. The data set can be described thus: Bone calcium mobilization (serum calcium). The settings on record: rats on 0.02% Ca diet, FIG. 9. The format is in vivo, rat. The protocol: (§1) Male, weanling Sprague-Dawley rats were placed on Diet 11 (Suda et al, J. Nutr. 100:1049, 1970) (0.47% Ca)+AEK oil for one week followed by Diet 11 (0.02% Ca)+AEK oil for 3 weeks. The rats were then switched to the same diet containing 0.47% Ca for one week followed by two weeks on the same diet containing 0.02% Ca. Dose administration began during the last week on 0.02% calcium diet. Four consecutive intraperitoneal (ip) doses were given approximately 24 hours apart. Twenty-four hours after the last dose, blood was collected from the severed neck and the concentration of serum calcium determined by atomic absorption spectrometry as a measure of bone calcium mobilization. The first 10 cm of the intestine was also collected for intestinal calcium transport analysis using the everted gut sac method.

Data set [4] relates to vitamin D-deficient rats. Description: Intestinal calcium transport (everted gut sac method). The format is in vivo, rat. The conditions noted are these: 4 consecutive ip doses, FIG. 10. The method, then:
as §1

The next data set relates to HL-60 leukemia cells. Description: Cell viability, HL-60 leukemia cells. The format is cell-based, human. The conditions noted are these: four days growth, methylene blue; FIG. 4A/4B. The method, then: (§2) Various cell lines were plated, administered a range of drug concentrations one time, allowed to grow for four days and then the number of cells present counted and expressed as a percentage of those present in the vehicle control plates. […] The number of live cells was expressed as a percentage of the total present. Each assay was done in duplicate.

Data set [5] relates to H-82 lung carcinoma cells. The data set can be described thus: Cell viability, H-82 lung carcinoma cells. The format is cell-based. The conditions noted are these: four days growth, methylene blue; FIG. 5A/5B. The method, then:
as §2

Data set [6] has as its system DU-145 prostate cancer cells. Description: Cell viability, DU-145 prostate cancer cells. The format is cell-based. The conditions noted are these: four days growth, methylene blue; FIG. 6. The protocol:
as §2

The subject of data set [7] is ROS 17/2.8 bone cancer cells. The data set can be described thus: Cell viability, ROS 17/2.8 bone cancer cells. The format is cell-based. The settings on record: four days growth, methylene blue; FIG. 7. The method, then: as §2
Data set [8] concerns OVCAR3 ovarian cancer cells. The data set can be described thus: Cell viability, OVCAR3 ovarian cancer cells. The settings on record: four days growth, methylene blue; FIG. 8. The format is cell-based. The protocol: as §2
Data set [9] can be described thus: Change in body weight of dosed animals. The format is in vivo, rat. The settings on record: various doses; FIG. 11. The protocol:
as §1

We go through 2 compounds from patent US9290447B2, “(20R) and (20S)-24-(p-toluenesulfonyloxy)-25,26,27-trinorvitamin D3 analogs and their uses” (Wisconsin Alumni Research Foundation, priority 2011, dated 2016).

pEC50: −log10 of the molar value.

Take `C=C1CC[C@H](O)C/C1=C/C=C1\CCC[C@]2(C)[C@@H]([C@H](C)CCCOS(=O)(=O)c3ccc(C)cc3)CC[C@@H]12` [TS-17, (20R)-25,26,27-trinor-24-(p-methylphenylsulfonate)-vitamin D3]: the “VDR binding activity relative to natural hormone (times less active)” value in data set [1] is given as “at least 100 times less active”. Also, the “HL-60 cell differentiation (in words)” value in the data set on HL-60 cells was “does not promote HL60 differentiation”. In addition, the “Transcriptional activity in bone cells (in words)” value in data set [2] (until very high doses are administered) is given as “lacks any transcriptional activity”. In the data set on vitamin D-deficient rats [3] (35,100 pmol/day for 4 consecutive days, ip), the “Bone calcium mobilization (serum calcium)” value was “little or no mobilization of bone calcium”. Further, the “Intestinal calcium transport activity” value in the data set on vitamin D-deficient rats [4] (35,100 pmol/rat) is recorded as “little to no activity”. Moreover, the “Viability of HL-60 leukemia cells” value in the data set on HL-60 leukemia cells was “kills HL-60 leukemia cells”. The “Viability of H-82 lung carcinoma cells” value in [5] is given as “kills H-82 lung carcinoma cells”. In addition, the “Viability of DU-145 prostate cells” value in data set [6] is on record as “does not have any significant effect on the viability”. For the same compound, the “Viability of ROS 17/2.8 bone cancer cells” value in data set [7] is “does not have any significant effect on the viability”. Also, the “Viability of OVCAR3 ovarian cancer cells” value in data set [8] is “does not have any significant effect on the viability”. In addition, the “Body weight throughout the test period” value in data set [9] is reported as “substantially maintain their body weight”.

In general, pEC50 refers to the EC50 on a negative log10 scale, so that one unit is a factor of ten. Consider `C=C1/C(=C\C=C2/CCC[C@]3(C)[C@@H]([C@H](C)CCCC(C)(C)O)CC[C@@H]23)C[C@@H](O)C[C@@H]1O` [1,25(OH)2D3, 1α,25-dihydroxyvitamin D3, reference compound], for which the negative-log EC50 (pEC50) with HL-60 cells (four days after treatment, read-out: EC50, HL-60 cell differentiation) is 8.70; in data set [2] (ROS 17/2.8 cells, 16 h after dosing), 10.00. Besides, the “Bone calcium mobilization (serum calcium)” value in the data set on vitamin D-deficient rats [3] (4 consecutive ip doses) is “significant increases in serum calcium”. Besides, in the data set on vitamin D-deficient rats [4] (260 pmol and 780 pmol doses), the “Intestinal calcium transport activity” value is “significant increase in activity”. For the same compound, in the data set with HL-60 leukemia cells, the “Viability of HL-60 leukemia cells” value is listed as “does not have any significant effect on the viability”. Besides, in [5], the “Viability of H-82 lung carcinoma cells” value was “requires a significantly higher dose”.
